From US8178695B2, “4-(3-aminobenzoyl)-1,3-dimethylpyrazoles and their use as herbicides” (Bayer Cropscience AG, priority 2007, dated 2012)
Where two headings read alike, the source gives them in different places.

How the values were obtained:
Format in all cases: in vivo
[1] = tested on: Lolium multiflorum; experiment: Pre-emergence herbicidal action against harmful plants; details: Comparative table 5, pre-emergence, 320 g a.i./ha, visual scoring 3-4 weeks after treatment
Source text: (§1) Seeds or rhizome pieces of mono- and dicotyledonous harmful plants are placed in sandy loam in pots of a diameter of 9 to 13 cm and covered with soil. The herbicides, formulated as emulsifiable concentrates or dusts, are applied to the surface of the covering soil in the form of aqueous dispersions or suspensions or emulsions at an application rate of 300 to 800 l of water/ha (converted), at various dosages. For further cultivation of the plants, the pots are then kept in a greenhouse under optimum conditions. The visual scoring of the damage to the harmful plants is carried out 3-4 weeks after the treatment. As shown by the results of these comparative tables, the selected compounds according to the invention have better herbicidal activity against a broad spectrum of economically important mono- and dicotyledonous harmful plants than the compounds disclosed in the prior art.

[2] = tested on: Stellaria media; experiment: as above; details: Comparative table 5, pre-emergence, 320 g a.i./ha, visual scoring 3-4 weeks after treatment
Source text: as §1

[3] = tested on: Cyperus serotinus; experiment: as above; details: Comparative table 5, pre-emergence, 320 g a.i./ha, visual scoring 3-4 weeks after treatment
Source text: as §1

[4] = tested on: Setaria viridis; experiment: as above; details: Comparative table 7, pre-emergence, 20 g a.i./ha, visual scoring 3-4 weeks after treatment
Source text: as §1

[5] = tested on: Veronica persica; experiment: as above; details: Comparative table 7, pre-emergence, 20 g a.i./ha, visual scoring 3-4 weeks after treatment
Source text: as §1

[6] = tested on: Viola tricolor; experiment: as above; details: Comparative table 7, pre-emergence, 20 g a.i./ha, visual scoring 3-4 weeks after treatment
Source text: as §1

[7] = tested on: Amaranthus retroflexus; experiment: as above; details: visual scoring 3-4 weeks after treatment
Source text: as §1

[8] = tested on: Abutilon theophrasti; experiment: Post-emergence herbicidal action against harmful plants; details: 20 g a.i./ha, scored after 3 to 4 weeks
Procedure: (§2) Seeds of mono- and dicotyledonous harmful plants are placed in sandy loam in cardboard pots, covered with soil and grown in the greenhouse under good growth conditions. Two to three weeks after sowing, the test plants are treated at the three-leaf stage. The compounds according to the invention, which are formulated as wettable powders or as emulsion concentrates, are sprayed at an application rate of 600 to 800 l of water/ha (converted) in a dosage stated in tables 1 to 5 onto the surface of the green plant parts. After the test plants have been left to stand in the greenhouse for 3 to 4 weeks under optimum growth conditions, the action of the compounds according to the invention is scored in comparison to compounds disclosed in the prior art. As shown by the results of these comparison tables, the selected compounds according to the invention have better herbicidal activity against a broad spectrum of economically important mono- and dicotyledonous harmful plants than the compounds disclosed in the prior art.

[9] = tested on: Setaria viridis; experiment: as above; details: 504 h, scored after 3 to 4 weeks, read-out: Activity against harmful plants SETVI; for pest or weed control at 20 g/ha: 20 g a.i./ha; for pest or weed control at 80 g/ha: Comparative table 3, post-emergence, 80 g a.i./ha
Procedure: as §2

[10] = tested on: Veronica persica; experiment: as above; details: 20 g a.i./ha, scored after 3 to 4 weeks
Procedure: as §2

[11] = tested on: Cyperus serotinus; experiment: as above; details: Comparative table 3, post-emergence, 80 g a.i./ha, scored after 3 to 4 weeks
Procedure: as §2

[12] = tested on: Amaranthus retroflexus; experiment: as above; details: 80 g a.i./ha, scored after 3 to 4 weeks
Procedure: as §2

[13] = tested on: Matricaria inodora; experiment: Pre-emergence herbicidal action against harmful plants; details: Comparative table 6, pre-emergence, 320 g a.i./ha, visual scoring 3-4 weeks after treatment
Source text: as §1

[14] = tested on: ALOMY; experiment: as above; details: Comparative table 6, pre-emergence, 320 g a.i./ha, visual scoring 3-4 weeks after treatment
Source text: as §1

[15] = tested on: Galium aparine; experiment: as above; details: Comparative table 9, pre-emergence, 320 g a.i./ha, visual scoring 3-4 weeks after treatment
Source text: as §1

[16] = tested on: Xanthium strumarium; experiment: as above; details: Comparative table 9, pre-emergence, 320 g a.i./ha, visual scoring 3-4 weeks after treatment
Source text: as §1

[17] = tested on: Viola tricolor; experiment: Post-emergence herbicidal action against harmful plants; details: Comparative table 1, post-emergence, 20 g a.i./ha, scored after 3 to 4 weeks
Procedure: as §2

[18] = tested on: Galium aparine; experiment: as above; details: Comparative table 2, post-emergence, 80 g a.i./ha, scored after 3 to 4 weeks
Procedure: as §2

[19] = tested on: Xanthium strumarium; experiment: as above; details: Comparative table 2, post-emergence, 80 g a.i./ha, scored after 3 to 4 weeks
Procedure: as §2

[20] = Comparative table 7, pre-emergence, 20 g a.i./ha
[21] = Comparative table 4, post-emergence
[22] = Comparative table 3, post-emergence
[23] = Comparative table 6, pre-emergence, 320 g a.i./ha
[24] = Comparative table 8, post-emergence
[25] = Comparative table 1, post-emergence
[26] = Comparative table 2, post-emergence

CCOCCNc1c(S(C)(=O)=O)ccc(C(=O)c2c(C)nn(C)c2O)c1C
Activity against harmful plants LOLMU [1]: 50% | Activity against harmful plants STEME [2]: 90% | Activity against harmful plants CYPES [3]: 80%

Cc1nn(C)c(O)c1C(=O)c1ccc(S(C)(=O)=O)c(N(C)CC2CC2)c1C
Activity against harmful plants SETVI [4]: 90% | Activity against harmful plants VERPE [5]: 90% | Activity against harmful plants VIOTR [6]: 100% | Activity against harmful plants AMARE [7, 20]: 100%

Cc1nn(C)c(O)c1C(=O)c1ccc(S(C)(=O)=O)c(NC(C)C)c1Cl
Activity against harmful plants ABUTH [8, 21]: 80% | pest or weed control at 20 g/ha [9, 21]: 80% | Activity against harmful plants VERPE [10, 21]: 40%

Cc1nn(C)c(O)c1C(=O)c1ccc(S(C)(=O)=O)c(N(C)CC2CC2)c1Cl
Activity against harmful plants SETVI [4]: 0% | Activity against harmful plants VERPE [5]: 0% | Activity against harmful plants VIOTR [6]: 0% | Activity against harmful plants AMARE [7, 20]: 20%

CCOCCNc1c(S(C)(=O)=O)ccc(C(=O)c2c(C)nn(C)c2O)c1Cl
Activity against harmful plants LOLMU [1]: 0% | Activity against harmful plants STEME [2]: 0% | Activity against harmful plants CYPES [3]: 60%

CCCNc1c(S(C)(=O)=O)ccc(C(=O)c2c(C)nn(C)c2O)c1C
pest or weed control at 80 g/ha [9]: 90% | Activity against harmful plants CYPES [11]: 80% | Activity against harmful plants AMARE [12, 22]: 100%

Cc1nn(C)c(O)c1C(=O)c1ccc(S(C)(=O)=O)c(NCC2CC2)c1Cl
Activity against harmful plants MATIN [13]: 0% | Activity against harmful plants AMARE [7, 23]: 90% | Activity against harmful plants ALOMY [14]: 20%

CCn1ncc(C(=O)c2ccc(S(C)(=O)=O)c(N(C)C)c2C)c1O
Activity against harmful plants GALAP [15]: 80% | Activity against harmful plants XANST [16]: 10%

COCCCNc1c(S(C)(=O)=O)ccc(C(=O)c2c(C)nn(C)c2O)c1C
Activity against harmful plants ABUTH [8, 24]: 90% | pest or weed control at 20 g/ha [9, 24]: 100%

Cc1nn(C)c(O)c1C(=O)c1ccc(S(C)(=O)=O)c(N(C)C)c1C
Activity against harmful plants GALAP [15]: 90% | Activity against harmful plants XANST [16]: 100%

COCCCNc1c(S(C)(=O)=O)ccc(C(=O)c2c(C)nn(C)c2O)c1Cl
Activity against harmful plants ABUTH [8, 24]: 70% | pest or weed control at 20 g/ha [9, 24]: 70%

Cc1nn(C)c(O)c1C(=O)c1ccc(S(C)(=O)=O)c(N)c1Cl
pest or weed control at 20 g/ha [9, 25]: 40% | Activity against harmful plants VERPE [10, 25]: 70% | Activity against harmful plants VIOTR [17]: 70%

CNc1c(S(C)(=O)=O)ccc(C(=O)c2c(C)nn(C)c2O)c1Cl
Activity against harmful plants GALAP [18]: 60% | Activity against harmful plants AMARE [12, 26]: 70% | Activity against harmful plants XANST [19]: 50%

Cc1nn(C)c(O)c1C(=O)c1ccc(S(C)(=O)=O)c(N)c1C
pest or weed control at 20 g/ha [9, 25]: 80% | Activity against harmful plants VERPE [10, 25]: 90% | Activity against harmful plants VIOTR [17]: 80%

CCCNc1c(S(C)(=O)=O)ccc(C(=O)c2c(C)nn(C)c2O)c1Cl
pest or weed control at 80 g/ha [9]: 70% | Activity against harmful plants CYPES [11]: 50% | Activity against harmful plants AMARE [12, 22]: 70%

Cc1nn(C)c(O)c1C(=O)c1ccc(S(C)(=O)=O)c(NC(C)C)c1C
Activity against harmful plants ABUTH [8, 21]: 90% | pest or weed control at 20 g/ha [9, 21]: 90% | Activity against harmful plants VERPE [10, 21]: 70%

CNc1c(S(C)(=O)=O)ccc(C(=O)c2c(C)nn(C)c2O)c1C
Activity against harmful plants GALAP [18]: 80% | Activity against harmful plants AMARE [12, 26]: 90% | Activity against harmful plants XANST [19]: 70%

Cc1nn(C)c(O)c1C(=O)c1ccc(S(C)(=O)=O)c(NCC2CC2)c1C
Activity against harmful plants MATIN [13]: 80% | Activity against harmful plants AMARE [7, 23]: 100% | Activity against harmful plants ALOMY [14]: 60%
